Measurements taken from US4740233A, “Substituted 1,2,4-triazolo[1,5-a]-pyrimidine-2-sulfonamides and compositions and methods of controlling undesired vegetation and suppressing the nitrification of ammonium nitrogen in soil” (The Dow Chemical Company, priority 1986, dated 1988).

Legend:
cotton = test: Preemergent control of plant species; format: in vivo, Gossypium spp.; settings: Gossypium hirsutum, pre-emergence, 336 h; 0.25 lb/acre; read-out: percent preemergent control
How it was run: (§1)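 Seeds sown in agricultural soil beds in a greenhouse received aqueous emulsions of test compositions applied uniformly over the bed surface at the listed rates; water-treated beds served as control. After two weeks under greenhouse growth conditions, control was scored as growth reduction versus untreated plants of the same species.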

rape = test: Preemergent control of plant species; format: in vivo, Brassica napus; settings: Brassica napus, pre-emergence, 336 h; 0.25 lb/acre; read-out: percent preemergent control
How it was run: as §1

soybean = test: Preemergent control of plant species; format: in vivo, Glycine max.; settings: Glycine max, pre-emergence, 336 h; 0.25 lb/acre; read-out: percent preemergent control
How it was run: as §1

sugar beet = test: Preemergent control of plant species; format: in vivo, Beta saccharifera; settings: Beta vulgaris, pre-emergence, 336 h; 0.25 lb/acre; read-out: percent preemergent control
How it was run: as §1

jimsonweed = test: Preemergent control of plant species; format: in vivo, Datura stramonium; settings: Datura stramonium, pre-emergence, 336 h; 0.25 lb/acre; read-out: percent preemergent control
How it was run: as §1

annual morning glory = test: Preemergent control of plant species; format: in vivo, Ipomoea spp.; settings: Ipomoea, pre-emergence, 336 h; 0.25 lb/acre; read-out: percent preemergent control
How it was run: as §1

pigweed = test: Preemergent control of plant species; format: in vivo, Amaranthus spp.; settings: Amaranthus retroflexus, pre-emergence, 336 h; 0.25 lb/acre; read-out: percent preemergent control
Experimental: (§2) The seeds of various species of plants were planted in beds of good agricultural soil in a greenhouse. A number of compositions of the present invention, generally in the nature of an aqueous emulsion, were applied at rates listed in the table so as to deposit a predetermined amount of active ingredients uniformly throughout the surface of the bed. Another seed bed was treated only with water to serve as a control. After treatment the seed beds were maintained for two weeks under greenhouse conditions conducive for good plant growth and watered as necessary. Control refers to the reduction in growth compared to the observed results of the same untreated species.

velvetleaf = test: Preemergent control of plant species; format: in vivo, Abutilon theophrasti; settings: Abutilon theophrasti, pre-emergence, 336 h; 0.25 lb/acre; read-out: percent preemergent control
How it was run: as §1

corn = test: Preemergent control of plant species; format: in vivo, Zea mays; settings: Zea mays, pre-emergence, 336 h; 0.25 lb/acre; read-out: percent preemergent control
How it was run: as §1

rice [1] = test: Preemergent control of plant species; format: in vivo, Oryza sativa; settings: Oryza sativa, pre-emergence, 336 h; 0.25 lb/acre; read-out: percent preemergent control
How it was run: as §1

sorghum = test: Preemergent control of plant species; format: in vivo, Sorghum vulgare; settings: Sorghum, pre-emergence, 336 h; 0.25 lb/acre; read-out: percent preemergent control
How it was run: as §1

wheat = test: Preemergent control of plant species; format: in vivo, Triticum aestivum; settings: Triticum aestivum, pre-emergence, 336 h; 0.25 lb/acre; read-out: percent preemergent control
How it was run: as §1

barnyardgrass [2] = test: Preemergent control of plant species; format: in vivo, Echinochloa crusgalli; settings: Echinochloa crus-galli, pre-emergence, 336 h; 0.25 lb/acre; read-out: percent preemergent control
How it was run: as §1

crabgrass = test: Preemergent control of plant species; format: in vivo, Digitaria spp.; settings: Digitaria sanguinalis, pre-emergence, 336 h; 0.25 lb/acre; read-out: percent preemergent control
Experimental: as §2

johnson grass = test: Preemergent control of plant species; format: in vivo, Sorghum halepense; settings: Sorghum halepense, pre-emergence, 336 h; 0.25 lb/acre; read-out: percent preemergent control
How it was run: as §1

wild oats = test: Preemergent control of plant species; format: in vivo; settings: Avena fatua, pre-emergence, 336 h; 0.25 lb/acre; read-out: percent preemergent control
How it was run: as §1

yellow foxtail = test: Preemergent control of plant species; format: in vivo, Setaria lutescens; settings: Setaria, pre-emergence, 336 h; 0.25 lb/acre; read-out: percent preemergent control
How it was run: as §1

rice [3] = test: Control of aquatic plant species (paddy water); format: in vivo, Oryza sativa; settings: Oryza sativa, 216 h, nine days, read-out: Percent control
How it was run: (§3)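 Seedlings at the 1-2 inch stage were transplanted into about 2 inches of soil and flooded to roughly 1 inch. An acetone concentrate of test chemical was injected into the paddy water, with the injected volume varied to set concentration. Percent control was rated nine days after application.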

barnyardgrass [4] = test: Control of aquatic plant species (paddy water); format: in vivo, Echinochloa crusgalli; settings: Echinochloa crus-galli, 216 h, nine days, read-out: Percent control
Experimental: In testing for such utility, the plant species to be tested were transplanted into 16 oz. containers into about 2 inches of soil when they were in the 1-2 inch stage and then flooded to a depth of about 1 inch. An acetone concentrate of the chemical to be tested was then injected into the paddy water, the volume injected being varied as desired to provide the desired concentration. Percent control was evaluated nine days after application.

sprangletop = test: Control of aquatic plant species (paddy water); format: in vivo, Leptochloa filiformis; settings: Leptochloa filiformis, 216 h, nine days, read-out: Percent control
How it was run: as §3

yellow nutsedge [5] = test: Control of aquatic plant species (paddy water); format: in vivo, Cyperus esculentus; settings: Cyperus, 216 h, nine days, read-out: Percent control
How it was run: as §3

[6] = test system: nitrification of ammonium nitrogen; test: Suppression of nitrification of ammonium nitrogen in soil; settings: 27° C.
How it was run: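 Value is % NH4-N remaining after a two-week, 27° C incubation of treated soil held at 1/3 bar tension moisture. Nitrate was measured with an ion-selective electrode after extraction with ammonium sulfate solution and 10 min shaking.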

yellow nutsedge [7] = test: Preemergent control of plant species; format: in vivo, Cyperus esculentus; settings: Cyperus, pre-emergence, 336 h; 0.25 lb/acre; read-out: percent preemergent control
How it was run: as §1

| Structure (SMILES) | plant injury at 280.212 g/ha (cotton) [%] | plant injury at 280.212 g/ha (rape) [%] | plant injury at 280.212 g/ha (soybean) [%] | plant injury at 280.212 g/ha (sugar beet) [%] | pest or weed control at 280.212 g/ha (jimsonweed) [%] | pest or weed control at 280.212 g/ha (annual morning glory) [%] | pest or weed control at 280.212 g/ha (pigweed) [%] | pest or weed control at 280.212 g/ha (velvetleaf) [%] | plant injury at 280.212 g/ha (corn) [%] | plant injury at 280.212 g/ha (rice [1]) [%] | plant injury at 280.212 g/ha (sorghum) [%] | plant injury at 280.212 g/ha (wheat) [%] | pest or weed control at 280.212 g/ha (barnyardgrass [2]) [%] | pest or weed control at 280.212 g/ha (crabgrass) [%] | pest or weed control at 280.212 g/ha (johnson grass) [%] | pest or weed control at 280.212 g/ha (wild oats) [%] | pest or weed control at 280.212 g/ha (yellow foxtail) [%] | % NH4-N Remaining After 2 Weeks Incubation ([6]; 0.1 ppm) [%] | % NH4-N Remaining After 2 Weeks Incubation ([6]; 1 ppm) [%] | % NH4-N Remaining After 2 Weeks Incubation ([6]; 10 ppm) [%] | also measured |
| --- | --- | --- | --- | --- | --- | --- | --- | --- | --- | --- | --- | --- | --- | --- | --- | --- | --- | --- | --- | --- | --- |
| Cc1cc(C)n2nc(S(=O)(=O)Nc3c(C)cccc3Cl)nc2n1 [Compound 31] | 80 | 98 | 95 | 100 | 65 | 100 | 95 | 95 | 95 | 98 | 50 | 98 | 100 | 100 | 100 | 98 | 100 | 66 | 86 | 91 | pest or weed control at 125 g/ha (rice [3]; 0.125 Kg/Ha): 90%; pest or weed control at 125 g/ha (barnyardgrass [4]; 0.125 Kg/Ha): 97%; pest or weed control at 125 g/ha (sprangletop; 0.125 Kg/Ha): 45%; pest or weed control at 125 g/ha (yellow nutsedge [5]; 0.125 Kg/Ha): 97%; % NH4-N Remaining After 2 Weeks Incubation ([6]; 0.01 ppm): 34% |
| Cc1cc(C)n2nc(S(=O)(=O)Nc3c(F)cccc3F)nc2n1 [Compound 25, 5,7-Dimethyl-N-(2,6-difluorophenyl)-1,2,4-triazolo[1,5-a]pyrimidine-2-sulfonamide] | 98 | 100 | 98 | 100 | 98 | 80 | 100 | 98 | 100 | 100 |  | 70 | 98 | 100 | 98 | 95 | 100 |  | 79 |  | pest or weed control at 280.212 g/ha (yellow nutsedge [7]): 95%; pest or weed control at 250 g/ha (rice [3]; 0.25 Kg/Ha): 97%; pest or weed control at 250 g/ha (barnyardgrass [4]; 0.25 Kg/Ha): 95%; pest or weed control at 250 g/ha (sprangletop; 0.25 Kg/Ha): 0%; pest or weed control at 250 g/ha (yellow nutsedge [5]; 0.25 Kg/Ha): 90%; % NH4-N Remaining After 2 Weeks Incubation ([6]; 0.06 ppm): 31%; % NH4-N Remaining After 2 Weeks Incubation ([6]; 0.125 ppm): 46%; % NH4-N Remaining After 2 Weeks Incubation ([6]; 0.25 ppm): 48%; % NH4-N Remaining After 2 Weeks Incubation ([6]; 0.5 ppm): 73% |
| COc1cc(C)n2nc(S(=O)(=O)Nc3c(Cl)cccc3Cl)nc2n1 [Compound 178] | 65 | 80 | 0 | 95 | 0 | 10 | 60 | 40 | 0 | 0 | 0 |  | 25 | 0 | 0 |  | 0 | 0 | 43 | 91 | pest or weed control at 280.212 g/ha (yellow nutsedge [7]): 0%; pest or weed control at 2000 g/ha (rice [3]; 2.0 Kg/Ha): 50%; pest or weed control at 2000 g/ha (barnyardgrass [4]; 2.0 Kg/Ha): 20%; pest or weed control at 2000 g/ha (sprangletop; 2.0 Kg/Ha): 0%; pest or weed control at 2000 g/ha (yellow nutsedge [5]; 2.0 Kg/Ha): 90% |
